This assay relates to P388 leukemia ip, CD2F1 mice, survival T/C. The experiment in a line: NCI In Vivo Anticancer Drug Screen. Data for tumor model P388 Leukemia (intraperitoneal) in CD2F1 (CDF1) mice. The note with it: endpoint: median survival time, higher = longer survival. A digest of the protocol:
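Mice carrying the transplanted tumor received test compound or vehicle. Survival was recorded in each group, and the value is the treated-group measurement divided by that of the vehicle-treated control group.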

Setting [1] is: dose: 25.0 mg/kg/injection, schedule: Q01DX009 (ip), vehicle: saline.
The mark [2] stands for this setting: dose: 50.0 mg/kg/injection, schedule: Q01DX009 (ip), vehicle: saline.
Setting [3] is: dose: 100.0 mg/kg/injection, schedule: Q01DX009 (ip), vehicle: saline.
The mark [4] stands for this setting: dose: 200.0 mg/kg/injection, schedule: Q01DX009 (ip), vehicle: saline.
[5] abbreviates: dose: 50.0 mg/kg/injection, schedule: Q01DX009 (ip), vehicle: saline with Tween-80.
Where [6] appears, read: dose: 100.0 mg/kg/injection, schedule: Q01DX009 (ip), vehicle: saline with Tween-80.
Where [7] appears, read: dose: 200.0 mg/kg/injection, schedule: Q01DX009 (ip), vehicle: saline with Tween-80.
[8] abbreviates: dose: 12.5 mg/kg/injection, schedule: Q01DX005 (ip), vehicle: Klucel (hydroxypropylcellulose) (HPC).
[9] abbreviates: dose: 25.0 mg/kg/injection, schedule: Q01DX005 (ip), vehicle: Klucel (hydroxypropylcellulose) (HPC).
[10] abbreviates: dose: 50.0 mg/kg/injection, schedule: Q01DX005 (ip), vehicle: Klucel (hydroxypropylcellulose) (HPC).
The mark [11] stands for this setting: dose: 100.0 mg/kg/injection, schedule: Q01DX005 (ip), vehicle: Klucel (hydroxypropylcellulose) (HPC).
[12] abbreviates: dose: 60.0 mg/kg/injection, schedule: Q01DX005 (ip), vehicle: Klucel (hydroxypropylcellulose) (HPC).
The mark [13] stands for this setting: dose: 120.0 mg/kg/injection, schedule: Q01DX005 (ip), vehicle: Klucel (hydroxypropylcellulose) (HPC).
The mark [14] stands for this setting: dose: 240.0 mg/kg/injection, schedule: Q01DX005 (ip), vehicle: Klucel (hydroxypropylcellulose) (HPC).
Where [15] appears, read: dose: 50.0 mg/kg/injection, schedule: Q01DX009 (ip), vehicle: Klucel (hydroxypropylcellulose) (HPC).
[16] abbreviates: dose: 100.0 mg/kg/injection, schedule: Q01DX009 (ip), vehicle: Klucel (hydroxypropylcellulose) (HPC).
The mark [17] stands for this setting: dose: 200.0 mg/kg/injection, schedule: Q01DX009 (ip), vehicle: Klucel (hydroxypropylcellulose) (HPC).

Structures are written as SMILES. Several values for one entry are separate records, joined by “and”; a condition that tells them apart may be missing. Equal values may be shown once. Toxic doses and inconclusive results are not listed.

Consider `Cc1ccc(NCCNCCO)c2c1C(=O)c1ccccc1C2=O`, for which the T/C under setting [1] was 100 % of control and 87 % of control; the T/C under setting [2] is 99 % of control and 89 % of control; the T/C (dose: 50.0 mg/kg/injection, schedule: Q01DX009 (ip), vehicle: suspension in saline) was 116 % of control; the T/C under setting [3] is 101 % of control and 90 % of control; the T/C (dose: 100.0 mg/kg/injection, schedule: Q01DX009 (ip), vehicle: suspension in saline) is 122 % of control; the T/C under setting [4] was 87 % of control and 95 % of control. Also, the T/C (dose: 200.0 mg/kg/injection, schedule: Q01DX009 (ip), vehicle: suspension in saline) is 151 % of control.

`CC1(/C=C/c2ccccc2)OCCO1`: the T/C under setting [5] was 99 % of control, the T/C under setting [6] is 98 % of control and the T/C under setting [7] was 102 % of control.

Turning to `CN(C)C(=O)c1cccc(COc2ccc(N)cc2Cl)c1`, the T/C is 95 % of control under setting [6]; 90 % of control under setting [7]; 95 % of control (dose: 400.0 mg/kg/injection, schedule: Q01DX009 (ip), vehicle: saline with Tween-80).

Consider `CC1CCC(C(C)C)/C(=N/NC(=O)c2cccnc2)C1` (stereo unspecified), for which the T/C is 100 % of control under setting [8], 104 % of control under setting [9] and 100 % of control under setting [10].

As to `C=C1CC2(CCCc3ccccc32)OC1=O` (stereo unspecified), the T/C was 101 % of control (dose: 100.0 mg/kg/injection, schedule: Q01DX001 (ip), vehicle: saline); 102 % of control (dose: 200.0 mg/kg/injection, schedule: Q01DX001 (ip), vehicle: saline); 101 % of control (dose: 400.0 mg/kg/injection, schedule: Q01DX001 (ip), vehicle: saline).

Consider `O=CC1(c2ccco2)SCCCS1`, for which the T/C was 106 % of control under setting [5], 104 % of control under setting [6] and 104 % of control under setting [7].

Take `FC(F)(F)C1=C(C(F)(F)F)OP23(OCCC(CO2)O3)O1` (stereo unspecified): the T/C runs as follows: (dose: 50.0 mg/kg/injection, schedule: Q04DX003 (ip), vehicle: Klucel (hydroxypropylcellulose) (HPC)) 105 % of control; (dose: 100.0 mg/kg/injection, schedule: Q04DX003 (ip), vehicle: Klucel (hydroxypropylcellulose) (HPC)) 108 % of control; (dose: 200.0 mg/kg/injection, schedule: Q04DX003 (ip), vehicle: Klucel (hydroxypropylcellulose) (HPC)) 99 % of control; (dose: 400.0 mg/kg/injection, schedule: Q04DX003 (ip), vehicle: Klucel (hydroxypropylcellulose) (HPC)) 103 % of control.

For `Nc1c(/C=C/c2cc3ccc(C4=NCCN4)cc3[nH]2)[nH]c2cc(C3=NCCN3)ccc12`, the T/C under setting [8] is 111 % of control, the T/C under setting [9] is 120 % of control, the T/C under setting [10] was 189 % of control and the T/C under setting [11] is 223 % of control.

For `OC1=CC(=S)NC2CCCCC12` (stereo unspecified), the T/C is 86 % of control under setting [10]; 102 % of control under setting [11]; 102 % of control (dose: 200.0 mg/kg/injection, schedule: Q01DX005 (ip), vehicle: Klucel (hydroxypropylcellulose) (HPC)).

In the case of `NC1CCc2cc(O)c(O)cc2C1` (stereo unspecified), the T/C is, setting by setting: (dose: 100.0 mg/kg/injection, schedule: Q04DX002 (ip), vehicle: saline) 108 % of control and 96 % of control; (dose: 200.0 mg/kg/injection, schedule: Q04DX002 (ip), vehicle: saline) 105 % of control and 109 % of control; (dose: 400.0 mg/kg/injection, schedule: Q04DX002 (ip), vehicle: saline) 109 % of control.

Take `O=C1CCC(=O)N1CN(CS(=O)(=O)c1ccc(Cl)cc1)c1ccc(Cl)cc1`: the T/C under setting [12] is 90 % of control, the T/C under setting [13] is 88 % of control and the T/C under setting [14] was 90 % of control.

For `O=C1OS(=O)(=O)c2cc3c(cc21)C1C(C2C3C3(Cl)C(Cl)=C(Cl)C2(Cl)C3(Cl)Cl)C2(Cl)C(Cl)=C(Cl)C1(Cl)C2(Cl)Cl` (stereo unspecified), the T/C reads like this: (dose: 12.5 mg/kg/injection, schedule: Q01DX009 (ip), vehicle: saline) 97 % of control; under setting [1], 100 % of control; under setting [2], 100 % of control and 104 % of control; under setting [3], 107 % of control.

`OC12CCC(c3ccccc3)(CC1)CC2`: the T/C by setting is: under setting [15], 104 % of control; under setting [16], 100 % of control; under setting [17], 100 % of control.

`C/C=C1/CN2CC[C@@]34c5cc([C@]67C8CCN9C/C(=C/C)[C@H](CC96)C(C(=O)OC)N7c6ccccc68)c(OC)cc5N(C)[C@H]3C2CC1C4C(=O)OC` (stereo partly specified): the T/C is 104 % of control (dose: 5.25 mg/kg/injection, schedule: Q01DX005 (ip), vehicle: Klucel (hydroxypropylcellulose) (HPC)); 98 % of control (dose: 10.5 mg/kg/injection, schedule: Q01DX005 (ip), vehicle: Klucel (hydroxypropylcellulose) (HPC)); 90 % of control (dose: 21.0 mg/kg/injection, schedule: Q01DX005 (ip), vehicle: Klucel (hydroxypropylcellulose) (HPC)); 96 % of control (dose: 42.0 mg/kg/injection, schedule: Q01DX005 (ip), vehicle: Klucel (hydroxypropylcellulose) (HPC)).

Turning to `CN1C2(c3ccccc3)OC(=O)C1(c1ccccc1)C1C(=O)C3C4c5ccccc5C(c5ccccc54)C3C(=O)C12` (stereo unspecified), the T/C was 94 % of control under setting [15], 100 % of control under setting [16] and 94 % of control under setting [17].

`COP(=S)(OC)SCSc1ccc(Cl)cc1`: the T/C is 89 % of control (dose: 12.5 mg/kg/injection, schedule: Q01DX009 (ip), vehicle: saline with Tween-80) and 91 % of control (dose: 25.0 mg/kg/injection, schedule: Q01DX009 (ip), vehicle: saline with Tween-80).

For the molecule `O=C1NC(c2cccc3c2OCO3)N=C2Oc3ccccc3C=C12` (stereo unspecified), the T/C is 107 % of control and 87 % of control under setting [1]; 118 % of control under setting [5]; 100 % of control and 107 % of control under setting [2]; 120 % of control under setting [6]; 106 % of control and 117 % of control under setting [3]; 106 % of control and 117 % of control under setting [4].

Consider `CC1=C(C)C(N(C)C)CS(=O)(=O)O1` (stereo unspecified), for which the T/C is 99 % of control under setting [10] and 104 % of control under setting [11].

Take `COC1OC2COc3ccccc3OC2C(NC(N)=S)C1OC` (stereo unspecified): the T/C by setting is: under setting [12], 105 % of control; under setting [13], 105 % of control; under setting [14], 105 % of control.

As for `CN(CCOc1c(I)cc(I)cc1I)CC(O)C(O)C(O)C(O)CO` (stereo unspecified), the T/C was 110 % of control (dose: 50.0 mg/kg/injection, schedule: Q01DX001 (ip), vehicle: Klucel (hydroxypropylcellulose) (HPC)); 94 % of control under setting [15]; 108 % of control (dose: 100.0 mg/kg/injection, schedule: Q01DX001 (ip), vehicle: Klucel (hydroxypropylcellulose) (HPC)); 109 % of control (dose: 200.0 mg/kg/injection, schedule: Q01DX001 (ip), vehicle: Klucel (hydroxypropylcellulose) (HPC)).

In the case of `O=[N+]([O-])c1ccc2c(c1)Cc1cc(N(CCCl)CCCl)ccc1-2`, the T/C is 94 % of control under setting [15], 92 % of control under setting [16] and 94 % of control under setting [17].

`O=C(c1ccccc1)C1(Cl)CCCCC1`: the T/C was 99 % of control (dose: 25.0 mg/kg/injection, schedule: Q01DX009 (ip), vehicle: saline + alcohol); 108 % of control (dose: 50.0 mg/kg/injection, schedule: Q01DX009 (ip), vehicle: saline + Tween-80 + alcohol); 91 % of control (dose: 50.0 mg/kg/injection, schedule: Q01DX009 (ip), vehicle: saline + alcohol); 104 % of control (dose: 100.0 mg/kg/injection, schedule: Q01DX009 (ip), vehicle: saline + Tween-80 + alcohol); 100 % of control (dose: 100.0 mg/kg/injection, schedule: Q01DX009 (ip), vehicle: saline + alcohol); 99 % of control (dose: 200.0 mg/kg/injection, schedule: Q01DX009 (ip), vehicle: saline + Tween-80 + alcohol). The T/C (dose: 200.0 mg/kg/injection, schedule: Q01DX009 (ip), vehicle: saline + alcohol) is 92 % of control and the T/C (dose: 400.0 mg/kg/injection, schedule: Q01DX009 (ip), vehicle: saline + Tween-80 + alcohol) is 112 % of control.

These data come from PubChem BioAssay AID330 (DTP/NCI, 2004).
